Reference: ChEMBL document CHEMBL1201862, “PubChem BioAssay data set” (2004)
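Method: 48-hour compound exposure of cells in 96-well plates, five concentrations, linear interpolation of endpoints. GI50: concentration for 50% inhibition of growth.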 Active and inactive are the calls of the source. Rule as the data show it: active = GI50 up to about 1.1 µM and inactive = higher.

Assays:
Experiment in all cases: NCI anticancer screen, dose series, 48 h
[1] = system: HOP-62
[2] = system: COLO 205
[3] = system: HCC 2998
[4] = system: HCT-116
[5] = system: SK-MEL-2
[6] = system: Malme-3M
[7] = system: SK-MEL-5
[8] = system: HT-29
[9] = system: KM12
[10] = system: SW-620
[11] = system: NCI-H226
[12] = system: UACC-62
[13] = system: DMS-114
[14] = system: EKVX
[15] = system: A549
[16] = system: XF498
[17] = system: NCI-H522
[18] = system: DLD-1
[19] = system: SNB-78
[20] = system: DMS-273

Measured: GI50

O=c1ccn(COC(COCc2ccccc2)COCc2ccccc2)c(=O)[nH]1
inactive: [1] > 100 µM | [2] > 100 µM | [3] > 100 µM | [4] > 100 µM | [5] > 100 µM | [6] > 100 µM | [7] 76.4 µM | [8] > 100 µM | [9] > 100 µM | [10] > 100 µM | [11] > 100 µM | [12] 86.9 µM

O=C(O)C1CCCCN1c1ccccc1[N+](=O)[O-] (stereo not drawn)
inactive: [1] > 100 µM | [13] > 100 µM | [3] > 100 µM | [14] > 100 µM | [15] > 100 µM | [16] > 100 µM | [4] > 100 µM | [17] > 100 µM | [5] > 100 µM | [6] > 100 µM | [7] > 100 µM | [8] > 100 µM | [10] > 100 µM | [11] > 100 µM | [18] > 100 µM | [19] > 100 µM | [12] > 100 µM | [20] > 100 µM

CCOC(=O)NC(Nc1ncccn1)(C(=O)OCC)C(F)(F)F (stereo not drawn)
inactive: [2] > 100 µM | [3] > 100 µM | [14] > 100 µM | [15] > 100 µM | [4] > 100 µM | [17] > 100 µM | [5] > 100 µM | [7] > 100 µM | [8] > 100 µM | [9] > 100 µM | [10] > 100 µM | [12] 63.4 µM

O=C=C=P(c1ccccc1)(c1ccccc1)c1ccccc1
inactive: [13] 22.8 µM | [2] 23.7 µM | [3] 61.5 µM | [14] 46.7 µM | [15] 40.6 µM | [16] 29 µM | [4] 34.4 µM | [5] 49.5 µM | [6] 30.6 µM | [7] 21.5 µM | [9] 48.9 µM | [10] > 100 µM | [11] 45.6 µM | [18] > 100 µM | [19] 39.7 µM | [20] 36.9 µM

COc1ccc(C[C@H](N)C(=O)N2C[C@H](CO)C[C@H](n3ccc(=O)[nH]c3=O)C2)cc1
inactive: [1] > 100 µM | [13] > 100 µM | [2] > 100 µM | [3] > 100 µM | [14] > 100 µM | [15] > 100 µM | [4] > 100 µM | [17] > 100 µM | [5] > 100 µM | [6] > 100 µM | [7] > 100 µM | [8] > 100 µM | [9] > 100 µM | [10] > 100 µM | [11] > 100 µM | [18] > 100 µM | [12] > 100 µM | [20] > 100 µM

COC(=O)C1C(C)N1C (stereo not drawn)
inactive: [1] > 100 µM | [13] > 100 µM | [2] > 100 µM | [3] > 100 µM | [14] > 100 µM | [15] > 100 µM | [16] 64.3 µM | [17] > 100 µM | [7] > 100 µM | [8] > 100 µM | [9] > 100 µM | [10] > 100 µM | [11] > 100 µM | [18] > 100 µM | [19] > 100 µM | [12] > 100 µM | [20] > 100 µM
